Measured values taken from patent US12090252B2, “Method for producing retinal tissues” (RIKEN, priority 2017, dated 2024).

What was measured:
Assay type in all cases: cell-based
[1] = system: cell aggregates containing a retinal tissue produced from human ES cells; test: CRX-positive and TRβ2-positive cells in retinal tissue, about day 70 of suspension culture (immunostaining, Image J); settings: for CRX-positive and TRβ2-positive cells (cone photoreceptor precursor) / CRX-positive cells (photoreceptor precursor) contained in retinal tissue: about day 70 (day 71-75) from start of suspension culture, T3 60 nM from day 38, BMP4 0.15 nM or Cyclopamine-KAAD 500 nM from day 22
Procedure: (§1) A cell aggregate containing a retinal tissue in an initial developmental stage was prepared by the method described in “Kuwahara et al. Nat Commun 2015, 19(6), 6286-” after modification in part. That is, the aforementioned cultured ES cells were individually dispersed using TRYPLE™ Express cell dispersion solution (Invitrogen), and the individually dispersed human ES cells were suspended in 100 μL of a serum-free medium in a cell non-adhesive 96 well culture plate (SUMILON spheroid plate, SUMITOMO BAKELITE CO., LTD.) at 9×10^3 cells per well to allow rapid formation of aggregates, after which they were cultured at 37° C., 5% CO2. As the serum-free medium therefor, a serum-free medium obtained by adding 10% KSR, 450 μM 1-monothioglycerol, 1× Chemically defined lipid concentrate, 5 mg/mL BSA, 20 μM Y27632 to a 1:1 mixture of F-12 medium and IMDM medium was used. At 6 days after the start of suspension culture, BMP4 at a final concentration of 1.5 nM was added and suspension culture was continued. A half amount of the culture medium in the well was exchanged with the above-mentioned medium not supplemented with a BMP signal transduction pathway agonist every 3 or 4 days. A cell aggregate containing a retinal tissue at day 18 from the start of suspension culture was cultured in suspension in a serum-free medium (DMEM/F12 medium supplemented with 1% N2 supplement) containing 3 μM CHIR99021 and 5 μM SU5402 for 4 days, namely, up to day 22 from the start of suspension culture. Thereafter, suspension culture of the cell aggregate containing the retinal tissue was continued until it was appropriately used for analysis and the like. As the culture medium during this period, serum-containing media shown in the following to [3] were used and the cell aggregate was cultured under 5% CO2 conditions. • [1] day 22 to day 38 from the start of suspension culture; DMEM/F12 medium supplemented with 10% fetal calf serum, 1% N2 supplement, and 100 μM taurine (hereinafter to be referred to as medium A). • [2] day 38 to day 60 from the start of suspension culture; a 1:3 mixed medium of medium A, and Neurobasal medium supplemented with 10% fetal calf serum, 2% B27 supplement, […], and 100 μM taurine (hereinafter to be referred to as medium B). • [3] after day 60 or later from the start of suspension culture: medium B.
The cell aggregates containing a retinal tissue shown in Example 4 were prepared by respectively adding T3 or dorsalization signal transmitter (BMP4) as follows in the method described in Example 1. • [1]-T3 group (FIG. 4a, FIG. 4e, FIG. 4i); using the culture medium described in Example 1, culture was performed without addition up to day 75 from the start of suspension culture. • [2] +T3 group (FIG. 4b, FIG. 4f, FIG. 4j); using the culture medium described in Example 1, 60 nM T3 was further added from day 38 from the start of suspension culture to the completion of suspension culture, and cultured up to day 71 from the start of suspension culture. • [3] +T3+BMP group (FIG. 4c, FIG. 4g, FIG. 4k); using the culture medium described in Example 1, 0.15 nM BMP4 and 60 nM T3 were further added respectively from day 22, day 38 from the start of suspension culture to the completion of suspension culture, and cultured up to day 71 from the start of suspension culture. • [4] +T3+Cyclopamine-KAAD group (FIG. 4d, FIG. 4h, FIG. 4l); using the culture medium described in Example 1, 500 nM Cyclopamine-KAAD and 60 nM T3 were further added respectively from day 22, day 38 from the start of suspension culture to the completion of suspension culture, and cultured up to day 71 from the start of suspension culture.
After fixing cell aggregates containing retinal tissue cultured under the above conditions with 4% para-formaldehyde, cryosections were prepared and subjected to immunostaining using CRX, TRβ2(TRb2) antibody, or DAPI staining for staining the cell nucleus.

[2] = system: cell aggregates containing a retinal tissue produced from human ES cells; test: PAX6/CHX10 cell proportions in retinal tissue, about day 190 of suspension culture (immunostaining, Image J); settings: for PAX6-negative/CHX10-strongly positive cells (bipolar cells) / PAX6-strongly positive/CHX10-negative cells (any of ganglion cell, amacrine cell, horizontal cell): about day 190 (day 188-191), T3 60 nM day 38-130, BMP4 0.15 nM or Cyclopamine-KAAD 500 nM day 22-100; for PAX6-strongly positive/CHX10-negative cell and PAX6-negative/CHX10-strongly positive cell, observation with fluorescent microscope: day 188-191, groups added with T3 compared to groups with no addition
Procedure: as §1
The cell aggregates containing a retinal tissue shown in Example 5 were prepared by respectively adding T3 or dorsalization signal transmitter as follows in the method described in Example 1. • [1]-T3 group (FIG. 5a, FIG. 5g, FIG. 5m); using the culture medium described in Example 1, culture was performed without addition up to day 191 from the start of suspension culture. • [2] +T3 group (FIG. 5b, FIG. 5h, FIG. 5n); using the culture medium described in Example 1, 60 nM T3 was further added from day 38 to day 130 from the start of suspension culture, and thereafter cultured up to day 188 from the start of suspension culture. From day 130 to day 188, medium B described in Example 1 was used. • [3] +BMP group (FIG. 5c, FIG. 5i, FIG. 5o); using the culture medium described in Example 1, 0.15 nM BMP4 was further added from day 22 to day 100 from the start of suspension culture, and thereafter cultured up to day 191 from the start of suspension culture. From day 100 to day 191, medium described in Example 1 was used. • [4] +T3+BMP group (FIG. 5d, FIG. 5j, FIG. 5p); using the culture medium described in Example 1, 0.15 nM BMP4 was further added from day 22 to day 100 from the start of suspension culture, 60 nM T3 was added from day 38 to day 130 from the start of suspension culture, and thereafter cultured up to day 188 from the start of suspension culture.

[3] = system: cell aggregates containing a retinal tissue produced from human ES cells; test: CRX:Venus, RXR-γ and NRL cell proportions in retinal tissue, about day 190 of suspension culture (immunostaining, Image J); settings: for CRX-positive cells (CRX:Venus-positive, photoreceptor precursor) / NRL-positive cells among CRX-positive cells (rod photoreceptor precursor) / RXR-γ-positive and NRL-negative cell among CRX-positive cells (cone photoreceptor precursor): about day 190 (day 188-193), T3 60 nM day 38-130, BMP4 0.15 nM or Cyclopamine-KAAD 500 nM day 22-100
Procedure: as §1
The cell aggregates containing a retinal tissue shown in Example 6 were prepared by respectively adding T3 or dorsalization signal transmitter (BMP4 or Cyclopamine-KAAD) as follows in the method described in Example 1. • [1]-T3 group (FIG. 6a, FIG. 6e, FIG. 6i, FIG. 6m); using the culture medium described in Example 1, culture was performed without addition up to day 191 from the start of suspension culture. • [2] +T3 group (FIG. 6b, FIG. 6f, FIG. 6j, FIG. 6n); using the culture medium described in Example 1, 60 nM T3 was further added from day 38 to day 130 from the start of suspension culture, and thereafter cultured up to day 192 from the start of suspension culture. From day 130 to day 192, medium described in Example 1 was used. • [3] +T3+BMP group (FIG. 6c, FIG. 6g, FIG. 6k, FIG. 6o); using the culture medium described in Example 1, 0.15 nM BMP4 was further added from day 22 to day 100 from the start of suspension culture, 60 nM T3 was added from day 38 to day 130 from the start of suspension culture, and thereafter cultured up to day 188 from the start of suspension culture. From day 130 to day 188, medium described in Example 1 was used. • [4] +T3+Cyclopamine-KAAD group (FIG. 6d, FIG. 6h, FIG. 6l, FIG. 6p); using the culture medium described in Example 1, 500 nM Cyclopamine-KAAD was further added from day 22 to day 100 from the start of suspension culture, 60 nM T3 was added from day 38 to day 130 from the start of suspension culture, and thereafter cultured up to day 193 from the start of suspension culture. From day 130 to day 193, medium described in Example 1 was used.

[4] = system: cell aggregates containing a retinal tissue produced from human ES cells; test: CRX-positive cells in neural retinal tissue, day 100-105 of suspension culture (immunostaining, Image J)
Procedure: A cell aggregate containing a retinal tissue in an initial developmental stage was prepared by the method described in “Kuwahara et al. Nat Commun 2015, 19(6), 6286-” after modification in part. That is, the aforementioned cultured ES cells were individually dispersed using TRYPLE™ Express cell dispersion solution (Invitrogen), and the individually dispersed human ES cells were suspended in 100 μL of a serum-free medium in a cell non-adhesive 96 well culture plate (SUMILON spheroid plate, SUMITOMO BAKELITE CO., LTD.) at 9×10^3 cells per well to allow rapid formation of aggregates, after which they were cultured at 37° C., 5% CO2. As the serum-free medium therefor, a serum-free medium obtained by adding 10% KSR, 450 μM 1-monothioglycerol, 1× Chemically defined lipid concentrate, 5 mg/mL BSA, 20 μM Y27632 to a 1:1 mixture of F-12 medium and IMDM medium was used. At 6 days after the start of suspension culture, BMP4 at a final concentration of 1.5 nM was added and suspension culture was continued. A half amount of the culture medium in the well was exchanged with the above-mentioned medium not supplemented with a BMP signal transduction pathway agonist every 3 or 4 days. A cell aggregate containing a retinal tissue at day 18 from the start of suspension culture was cultured in suspension in a serum-free medium (DMEM/F12 medium supplemented with 1% N2 supplement) containing 3 μM CHIR99021 and 5 μM SU5402 for 4 days, namely, up to day 22 from the start of suspension culture. Thereafter, suspension culture of the cell aggregate containing the retinal tissue was continued until it was appropriately used for analysis and the like. […]

[5] = system: cell aggregates containing a retinal tissue produced from human ES cells; test: CRX:Venus green fluorescence of cell aggregates under a fluorescent microscope, day 69-74; settings: T3 vs −T3 group
Procedure: A cell aggregate containing a retinal tissue in an initial developmental stage was prepared by the method described in “Kuwahara et al. Nat Commun 2015, 19(6), 6286-” after modification in part. That is, the aforementioned cultured ES cells were individually dispersed using TRYPLE™ Express cell dispersion solution (Invitrogen), and the individually dispersed human ES cells were suspended in 100 μL of a serum-free medium in a cell non-adhesive 96 well culture plate (SUMILON spheroid plate, SUMITOMO BAKELITE CO., LTD.) at 9×10^3 cells per well to allow rapid formation of aggregates, after which they were cultured at 37° C., 5% CO2. As the serum-free medium therefor, a serum-free medium obtained by adding 10% KSR, 450 μM 1-monothioglycerol, 1× Chemically defined lipid concentrate, 5 mg/mL BSA, 20 μM Y27632 to a 1:1 mixture of F-12 medium and IMDM medium was used. At 6 days after the start of suspension culture, BMP4 at a final concentration of 1.5 nM was added and suspension culture was continued. A half amount of the culture medium in the well was exchanged with the above-mentioned medium not supplemented with a BMP signal transduction pathway agonist every 3 or 4 days. […]

[6] = day 71-75, T3 vs −T3 group, combinations vs +T3 group
[7] = day 188-193, compared to −T3 group

Structure (SMILES) | CRX-positive and TRβ2-positive cells (cone photoreceptor precursor) [1] [%] | CRX-positive cells (photoreceptor precursor) contained in retinal tissue [1] [%] | PAX6-negative/CHX10-strongly positive cells (bipolar cells) [2] [%] | PAX6-strongly positive/CHX10-negative cells (any of ganglion cell, amacrine cell, horizontal cell) [2] [%] | PAX6-strongly positive/CHX10-negative cell and PAX6-negative/CHX10-strongly positive cell, observation with fluorescent microscope [2] | CRX-positive cells (CRX:Venus-positive, photoreceptor precursor) [3] [%] | NRL-positive cells among CRX-positive cells (rod photoreceptor precursor) [3] [%] | RXR-γ-positive and NRL-negative cell among CRX-positive cells (cone photoreceptor precursor) [3] [%] | CRX-positive cell (photoreceptor precursor), observation with fluorescence microscope [1, 6] | cone photoreceptor precursors (CRX-positive cell that expresses TRβ2), observation [1, 6] | ectopic CRX-positive cell in region on the basement membrane side from neuroblastic layer ([1]; day 71-75, observation with fluorescence microscope) | RXR-γ-positive and NRL-negative cone photoreceptor precursor among CRX:Venus-positive photoreceptor precursors, observation [3, 7] | proportion of photoreceptor precursor among the cells contained in the retinal tissue, observation [3, 7] | proportion of CRX-positive cells contained in the neural retinal tissue ([4]; T3 60 nM from day 38, BMP4 0.15 nM or Cyclopamine-KAAD 500 nM day 22-100) [%] | CRX-positive cell (photoreceptor precursor), observation ([4]; compared to −T3 group) | ectopic photoreceptor precursors in neuroblastic layer and ganglion cell layer ([4]; observation) | green fluorescence shown by knocked-in CRX:Venus ([5]; day 69-74, T3 60 nM from day 38, BMP4 0.15 nM or Cyclopamine-KAAD 500 nM from day 22, combinations vs +T3 group) | green fluorescence shown by knocked-in CRX:Venus, in the presence of 9-cis retinoic acid ([5]; day 74, 100 nM 9-cis retinoic acid and 60 nM T3 from day 38, BMP4 0.45 nM from day 22, combination vs +T3 group)
CC1=C2C[C@H]3[C@@H](CC=C4CC(=O)CC[C@@]43C)[C@@H]2CC[C@]12O[C@@H]1C[C@H](C)CN(CCNC(=O)CCCCCNC(=O)CCc3ccccc3)[C@H]1[C@H]2C [Cyclopamine-KAAD] | 8.1 | 14.1 | 8.65 | 24.50 | many | 41.7 | 11.5 | 30.2 |  |  |  |  |  |  |  |  |  | 
N[C@@H](Cc1cc(I)c(Oc2ccc(O)c(I)c2)c(I)c1)C(=O)O [T3, triiodothyronine] | 11.3 | 22.8 | 4.29 | 13.83 | markedly decreased | 53.4 | 9.4 | 44.1 | found more | found in a greater number | found at the same level as in the apical surface | increased | markedly high | 30.0 | remarkably increased | ectopic photoreceptor precursors are contained | observed more | observed more
